{
  "source": "patent US20030013099A1",
  "about": "“Genes regulated by DNA methylation in colon tumors” (priority 2001, published 2003)",
  "tested_on": "HT29 cells",
  "assay": "microarray differential expression, HT29 cells treated with 500 nM Aza",
  "format": "cell-based, human",
  "conditions": "vs untreated, log base 2, negative = upregulation",
  "protocol": "HT29 cells were derived from a Grade II adenocarcinoma of the colon obtained from a person. HCT116 cells are a subpopulation of malignant cells isolated from a primary cell culture of a single human colonic carcinoma (Brattain et al. (1981) Cancer Res 41:1751-6). HMEC cells are a primary human epithelial cell line derived from the breast tissue of a normal donor. HT29 and HCT116 colorectal carcinoma cells (American Type Culture Collection, Manassas Va.) were cultured in McCoy's medium supplemented with 10% fetal bovine serum (Invitrogen) at 37° C. and 5% CO2. Treated cells were exposed to 500 nM 5-aza-2-deoxycytidine (Aza; Sigma-Aldrich) 24 hours after passage in complete culture medium. Control cultures were treated in parallel with phosphate buffered saline vehicle. After twenty-four hours, culture medium was replaced with drug-free medium. Control and Aza-treated cells were subcultured at equal densities at 1 and 5 days after the initial treatment, and proliferation was measured at the subsequent time point using a Coulter counter (Beckman Coulter, Fullerton Calif.). Cells were harvested 5 days after the initial treatment.\nCells were harvested and lysed in 1 ml of TRIZOL reagent (5×10^6 cells/ml; Invitrogen). The lysates were vortexed thoroughly and incubated at room temperature for 2-3 minutes and extracted with 0.5 ml chloroform. The extract was mixed, incubated at room temperature for 5 minutes, and centrifuged at 16,000× g for 15 minutes at 4° C. The aqueous layer was collected, and an equal volume of isopropanol was added. Samples were mixed, incubated at room temperature for 10 minutes, and centrifuged at 16,000× g for 20 minutes at 4° C. The supernatant was removed, and the RNA pellet was washed with 1 ml of 70% ethanol, centrifuged at 16,000× g at 4° C., and resuspended in RNAse-free water. The concentration of the RNA was determined by measuring the optical density at 260 nm.\nPoly(A) RNA was prepared using an OLIGOTEX mRNA kit (Qiagen) with the following modifications: OLIGOTEX beads were washed in tubes instead of on spin columns, resuspended in elution buffer, and then loaded onto spin columns to recover mRNA. To obtain maximum yield, the mRNA was eluted twice.\nEach poly(A) RNA sample was reverse transcribed using MMLV reverse-transcriptase, 0.05 pg/μl oligo-d(T) primer (21mer), 1× first strand buffer, 0.03 units/ul RNAse inhibitor, 500 uM dAT?, 500 uM dGTP, 500 uM dTTP, 40 uM dCTP, and 40 uM either dCTP-Cy3 or dCTP-Cy5 (APB). The reverse transcription reaction was performed in a […] volume containing 200 ng poly(A) RNA using the GEMBRIGHT kit (Incyte Genomics). Specific control poly(A) RNAs (YCFRO6, YCFR45, YCFR67, YCFR85, YCFR43, YCFR22, YCFR23, YCFR25, YCFR44, YCFR26) were synthesized by in vitro transcription from non-coding yeast genomic DNA (W. Lei, unpublished). As quantitative controls, control mRNAs (YCFRO6, YCFR45, YCFR67, and YCFR85) at 0.002 ng, 0.02 ng, 0.2 ng, and 2 ng were diluted into reverse transcription reaction at ratios of 1:100,000, 1:10,000, 1:1000, 1:100 (w/w) to sample mRNA, respectively. To sample differential expression patterns, control mRNAs (YCFR43, YCFR22, YCFR23, YCFR25, YCFR44, YCFR26) were diluted into reverse transcription reaction at ratios of 1:3, 3:1, 1:10, 10:1, 1:25, 25:1 (w/w) to sample mRNA. Reactions were incubated at 37° C. for 2 hours, treated with […] of 0.5M sodium hydroxide, and incubated for 20 minutes at 85° C. to the stop the reaction and degrade the RNA.\ncDNAs were purified using two successive CHROMA SPIN 30 gel filtration spin columns (Clontech). Cy3- and Cy5-labeled reaction samples were combined as described below and ethanol precipitated using […] of 100% ethanol. The cDNAs were then dried to completion using a SpeedVAC system (Savant Instruments, Holbrook N.Y.) and resuspended in 14 μl 5× SSC, 0.2% SDS. […]",
  "data": [
    {"smiles": "Nc1ncn([C@H]2C[C@H](O)[C@@H](CO)O2)c(=O)n1", "note": "[Aza, 5-aza-2-deoxycytidine]", "values": [
      {"measurement": "differential expression, Clone ID 2416222, HT29 t/ Aza (5d)", "setting": "SEQ ID NO:1 hypothetical protein", "value": "−1.74"},
      {"measurement": "differential expression, Clone ID 4103545, HT29 t/ Aza (5d)", "setting": "SEQ ID NO:2 Incyte Unique", "value": "−1.89"},
      {"measurement": "differential expression, Clone ID 322569, HT29 t/ Aza (5d)", "setting": "SEQ ID NO:3 interferon-inducible protein", "value": "−4.17"},
      {"measurement": "differential expression, Clone ID 5322134, HT29 t/ Aza (5d)", "setting": "SEQ ID NO:5 chromosome 6p21.3, HLA Class I region", "value": "−2.12"},
      {"measurement": "differential expression, Clone ID 1698458, HT29 t/ Aza (5d)", "setting": "SEQ ID NO:6 unnamed protein product", "value": "−1.79"},
      {"measurement": "differential expression, Clone ID 1871523, HT29 t/ Aza (5d)", "setting": "SEQ ID NO:7 KIAA1046 protein", "value": "−1.07"},
      {"measurement": "differential expression, Clone ID 6024084, HT29 t/ Aza (5d)", "setting": "SEQ ID NO:8 putative tumor antigen", "value": "−2.79"},
      {"measurement": "differential expression, Clone ID 3810006, HT29 t/ Aza (5d)", "setting": "SEQ ID NO:9 Incyte Unique", "value": "−0.92"},
      {"measurement": "differential expression, Clone ID 4508879, HT29 t/ Aza (5d)", "setting": "SEQ ID NO:10 Incyte Unique", "value": "−0.85"},
      {"measurement": "differential expression, Clone ID 4225379, HT29 t/ Aza (5d)", "setting": "SEQ ID NO:11 U 6 RNA", "value": "−0.85"},
      {"measurement": "differential expression, Clone ID 3463713, HT29 t/ Aza (5d)", "setting": "SEQ ID NO:12 cDNA clone ZD16H10", "value": "−1.87"},
      {"measurement": "differential expression, Clone ID 2998017, HT29 t/ Aza (5d)", "setting": "SEQ ID NO:13, 14 T-cell receptor gamma", "value": "−1.14"},
      {"measurement": "differential expression, Clone ID 4318273, HT29 t/ Aza (5d)", "setting": "SEQ ID NO:15 pTR5 repetitive sequence", "value": "−1.58"},
      {"measurement": "differential expression, Clone ID 1649414, HT29 t/ Aza (5d)", "setting": "SEQ ID NO:16 Hep27 protein", "value": "−1.20"},
      {"measurement": "differential expression, Clone ID 1684742, HT29 t/ Aza (5d)", "setting": "SEQ ID NO:18 cDNA FLJ20222", "value": "−0.85"},
      {"measurement": "differential expression, Clone ID 2825816, HT29 t/ Aza (5d)", "setting": "SEQ ID NO:19 KIAA0412", "value": "−1.84"},
      {"measurement": "differential expression, Clone ID 2440943, HT29 t/ Aza (5d)", "setting": "SEQ ID NO:21 Incyte Unique", "value": "−1.07"},
      {"measurement": "differential expression, Clone ID 1294339, HT29 t/ Aza (5d)", "setting": "SEQ ID NO:22 PDGF-B", "value": "−0.93"},
      {"measurement": "differential expression, Clone ID 5104741, HT29 t/ Aza (5d)", "setting": "SEQ ID NO:23 cDNA FLJ10570", "value": "−0.93"},
      {"measurement": "differential expression, Clone ID 1855389, HT29 t/ Aza (5d)", "setting": "SEQ ID NO:24 pTR7 repetitive sequence", "value": "−2.09"},
      {"measurement": "differential expression, Clone ID 5207613, HT29 t/ Aza (5d)", "setting": "SEQ ID NO:25 chromosome 21 segment HS21C049", "value": "−2.10"},
      {"measurement": "differential expression, Clone ID 3207902, HT29 t/ Aza (5d)", "setting": "SEQ ID NO:26 hypothetical protein", "value": "−1.29"},
      {"measurement": "differential expression, Clone ID 4999769, HT29 t/ Aza (5d)", "setting": "SEQ ID NO:27 ZNFpT17", "value": "−1.26"},
      {"measurement": "differential expression, Clone ID 408886, HT29 t/ Aza (5d)", "setting": "SEQ ID NO:28 transketolase", "value": "−1.31"},
      {"measurement": "differential expression, Clone ID 4764233, HT29 t/ Aza (5d)", "setting": "SEQ ID NO:30 GAGE-8", "value": "−2.00"},
      {"measurement": "differential expression, Clone ID 2511379, HT29 t/ Aza (5d)", "setting": "SEQ ID NO:31 GAGE-7B", "value": "−1.98"},
      {"measurement": "differential expression, Clone ID 2471817, HT29 t/ Aza (5d)", "setting": "SEQ ID NO:33 cDNA clone YU62C03", "value": "−1.20"},
      {"measurement": "differential expression, Clone ID 3333736, HT29 t/ Aza (5d)", "setting": "SEQ ID NO:34 MAGE-11 antigen", "value": "−1.38"},
      {"measurement": "differential expression, Clone ID 1304365, HT29 t/ Aza (5d)", "setting": "SEQ ID NO:35 GAGE-8", "value": "−2.48"},
      {"measurement": "differential expression, Clone ID 2657056, HT29 t/ Aza (5d)", "setting": "SEQ ID NO:37, 38 MAGE-4b antigen", "value": "−1.93"},
      {"measurement": "differential expression, Clone ID 2507719, HT29 t/ Aza (5d)", "setting": "SEQ ID NO:39 MAGE-9 antigen", "value": "−2.32"},
      {"measurement": "differential expression, Clone ID 4688, HT29 t/ Aza (5d)", "setting": "SEQ ID NO:41 MAGE-1", "value": "−2.03"},
      {"measurement": "differential expression, Clone ID 2068708, HT29 t/ Aza (5d)", "setting": "SEQ ID NO:42 HM74", "value": "−1.17"},
      {"measurement": "differential expression, Clone ID 23770, HT29 t/ Aza (5d)", "setting": "SEQ ID NO:43 1-8D", "value": "−2.99"},
      {"measurement": "differential expression, Clone ID 1616783, HT29 t/ Aza (5d)", "setting": "SEQ ID NO:45 Incyte Unique", "value": "−0.84"},
      {"measurement": "differential expression, Clone ID 820942, HT29 t/ Aza (5d)", "setting": "SEQ ID NO:46 cDNA FLJ20120", "value": "−0.58"},
      {"measurement": "differential expression, Clone ID 891322, HT29 t/ Aza (5d)", "setting": "SEQ ID NO:47 Incyte Unique", "value": 0.00},
      {"measurement": "differential expression, Clone ID 2755836, HT29 t/ Aza (5d)", "setting": "SEQ ID NO:48 U5 A RNA", "value": "−0.68"},
      {"measurement": "differential expression, Clone ID 1227521, HT29 t/ Aza (5d)", "setting": "SEQ ID NO:49 phospholipid scramblase 1", "value": "−2.10"},
      {"measurement": "differential expression, Clone ID 2200842, HT29 t/ Aza (5d)", "setting": "SEQ ID NO:50 retinoid inducible gene 1", "value": "−1.74"},
      {"measurement": "differential expression, Clone ID 2238363, HT29 t/ Aza (5d)", "setting": "SEQ ID NO:51 interferon induced", "value": "−1.85"},
      {"measurement": "differential expression, Clone ID 1495382, HT29 t/ Aza (5d)", "setting": "SEQ ID NO:53 TRAIL", "value": "−1.07"},
      {"measurement": "differential expression, Clone ID 1998269, HT29 t/ Aza (5d)", "setting": "SEQ ID NO:55 rhoB", "value": "−0.92"},
      {"measurement": "differential expression, Clone ID 1919287, HT29 t/ Aza (5d)", "setting": "SEQ ID NO:56 hepatitis C-associated microtubular aggregate", "value": "−3.12"},
      {"measurement": "differential expression, Clone ID 2637446, HT29 t/ Aza (5d)", "setting": "SEQ ID NO:57 HE4 protein", "value": "−1.07"},
      {"measurement": "differential expression, Clone ID 1962141, HT29 t/ Aza (5d)", "setting": "SEQ ID NO:58 Similar to keratin 7", "value": "−0.43"},
      {"measurement": "differential expression, Clone ID 4933404, HT29 t/ Aza (5d)", "setting": "SEQ ID NO:60 Incyte Unique", "value": "−0.32"},
      {"measurement": "differential expression, Clone ID 2150288, HT29 t/ Aza (5d)", "setting": "SEQ ID NO:61 Keratin 8", "value": "−0.07"},
      {"measurement": "differential expression, Clone ID 2697455, HT29 t/ Aza (5d)", "setting": "SEQ ID NO:61 Keratin 8", "value": "−0.32"}
    ]}
  ]
}
